{
  "source": "paper PMC11864979",
  "about": "“First-in-class ultralong-target-residence-time p38α inhibitors as a mitosis-targeted therapy for colorectal cancer” (Nature Cancer, 2025)",
  "key": {"PDO7": {"system": "PDO7", "assay": "cell viability in patient-derived CRC organoids PDO7", "assay_type": "cell-based, human", "method": "(§1) For in vitro treatment studies, organoids were mechanically dissociated and digested using TrypLE supplemented with 100 µg ml^−1 DNaseI and 10.5 µM Y-27632 dihydrochloride (Invitrogen) at 37 °C. A total of 1,000–2,000 single cells were plated per well in white 96-well plates (Greiner) in culture medium containing 10% GFR Matrigel or Cultrex BME. The treatment with doxycycline (5 µg ml^−1), pharmacological inhibitors or corresponding volumes of DMSO was started 24 h after plating. Doxycycline was obtained from Sigma-Aldrich. […] Cell viability was measured by means of CellTiter-Glo 3D or CellTiter-Glo 2.0 reagent (Promega) according to the manufacturers’ instructions and the Infinite M Plex reader (Tecan, i-control version 3.9.1 software). Results were normalized to vehicle (DMSO) or to shNC. For cell-doubling assays, the cell number was quantified at the corresponding time points using Guava EasyCyte flow cytometer (Luminex, CytoSoft v5.2 software)."}, "RKO": {"system": "RKO", "assay": "cell viability in human CRC cell line RKO", "assay_type": "cell-based", "conditions": "ED Fig. 9g, replicates; for viability at 0.0137 µM: read-out: RKO Cell viability (%), 0.0137 µM; for viability at 0.0412 µM: read-out: RKO Cell viability (%), 0.0412 µM; for viability at 0.1235 µM: read-out: RKO Cell viability (%), 0.1235 µM; for viability at 0.3704 µM: read-out: RKO Cell viability (%), 0.3704 µM; for viability at 3.3333 µM: read-out: RKO Cell viability (%), 3.3333 µM; for viability at 10 µM: read-out: RKO Cell viability (%), 10.0000 µM", "method": "(§2) To generate KAP^2D cells, KAP organoids were isolated from Matrigel, fragmented by mechanical dissociation and plated without any extracellular matrix on common cell culture dishes. Phoenix-Eco packaging cells (CRL-3214), HCT-15 (CCL-225), HCT 116 (CCL-247), COLO 205 (CCL-222), LS 174T (CL-188), RKO (CRL-2577) and HT-29 (HTB-38) were obtained from the American Type Culture Collection. The cells were cultured at 37 °C and 7% CO2 with RPMI (KAP^2D cells) or DMEM (other cell lines), supplemented with 10% FBS and penicillin–streptomycin. KAP^2D cells were authenticated using PCR (Kras locus and Trp53 locus). Phoenix-Eco packaging cells and HCT-15, HCT 116, COLO 205, LS 174T, RKO and HT-29 cells were authenticated by the provider using short tandem repeat profiling. No commonly misidentified cell lines were used. Mycoplasma contamination was excluded by a PCR-based analysis.\nas §1"}, "HCT-15": {"system": "HCT-15", "assay": "cell viability in human CRC cell line HCT-15", "assay_type": "cell-based", "conditions": "for HCT-15 Cell viability (%): 4 d", "method": "as §2, §1"}, "PDO12": {"system": "PDO12", "assay": "cell viability in patient-derived CRC organoids PDO12", "assay_type": "cell-based, human", "method": "as §1"}, "PDO9": {"system": "PDO9", "assay": "cell viability in patient-derived CRC organoids PDO9", "assay_type": "cell-based, human", "method": "as §1"}, "[1]": {"conditions": "Homo sapiens, RKO, first experiment"}},
  "note": "Values joined by “and” are separate entries in the source; they are usually repeats but may differ in a detail not shown here. Equal entries are not always repeated. Where two headings read alike, the source gives them in different places.",
  "data": [
    {"smiles": "O=C1c2ccc(Nc3ccc(F)cc3F)cc2CCc2ccc(OC[C@H](O)CO)cc21", "note": "[SKL, skepinone-L, reference compound]", "values": [
      {"measurement": "viability at 0.5 µM", "setting": "PDO7; Homo sapiens, 96 h, read-out: Cell viability (%), PDO7, 0.5 µM, 4 d", "value": 82.8, "unit": "%"},
      {"measurement": "viability at 1 µM", "setting": "PDO7; Homo sapiens, 96 h, read-out: Cell viability (%), PDO7, 1 µM, 4 days", "value": 96.8, "unit": "%"},
      {"measurement": "Cell viability (%)", "setting": "PDO7; PDO7, 0.5 µM, 4 d, 0.5 µM", "value": "101.04% and 90.15%"},
      {"measurement": "Cell viability (%)", "setting": "PDO7; PDO7, 1 µM, 4 days, 1 µM", "value": "99.67% and 101.17%"},
      {"measurement": "RKO Cell viability (%)", "setting": "RKO; 0.0137 µM, Repetition", "value": "119.75% and 114.04%"},
      {"measurement": "RKO Cell viability (%)", "setting": "RKO; 0.0137 µM, first experiment", "value": "97.01% and 95.97%"},
      {"measurement": "RKO Cell viability (%)", "setting": "RKO; 0.0412 µM, Repetition", "value": "110.50% and 104.43%"},
      {"measurement": "RKO Cell viability (%)", "setting": "RKO; 0.0412 µM, first experiment", "value": "90.38% and 90.15%"},
      {"measurement": "RKO Cell viability (%)", "setting": "RKO; 0.1235 µM, Repetition", "value": 96.29, "unit": "%"},
      {"measurement": "RKO Cell viability (%)", "setting": "RKO; 0.1235 µM, first experiment", "value": "96.41% and 82.79%"},
      {"measurement": "RKO Cell viability (%)", "setting": "RKO; 0.3704 µM, Repetition", "value": "112.94% and 109.02%"},
      {"measurement": "RKO Cell viability (%)", "setting": "RKO; 0.3704 µM, first experiment", "value": "79.06% and 75.48%"},
      {"measurement": "RKO Cell viability (%)", "setting": "RKO; 1.1111 µM, Repetition", "value": "92.46% and 113.42% and 111.27%"},
      {"measurement": "RKO Cell viability (%)", "setting": "RKO; 1.1111 µM, first experiment", "value": "98.68% and 92.88%"},
      {"measurement": "RKO Cell viability (%)", "setting": "RKO; 3.3333 µM, Repetition", "value": "97.71% and 103.33%"},
      {"measurement": "RKO Cell viability (%)", "setting": "RKO; 3.3333 µM, first experiment", "value": "90.21% and 92.19%"},
      {"measurement": "RKO Cell viability (%)", "setting": "RKO; 10.0000 µM, Repetition", "value": "100.51% and 98.00%"},
      {"measurement": "RKO Cell viability (%)", "setting": "RKO; 10.0000 µM, first experiment", "value": "77.92% and 73.23%"},
      {"measurement": "viability at 0.0137 µM", "setting": "RKO; Homo sapiens, RKO, Repetition", "value": 123, "unit": "%"},
      {"measurement": "viability at 0.0137 µM", "setting": "RKO; [1]", "value": 103, "unit": "%"},
      {"measurement": "viability at 0.0412 µM", "setting": "RKO; Homo sapiens, RKO, Repetition", "value": 107, "unit": "%"},
      {"measurement": "viability at 0.0412 µM", "setting": "RKO; [1]", "value": 102, "unit": "%"},
      {"measurement": "viability at 0.1235 µM", "setting": "RKO; Homo sapiens, RKO, Repetition", "value": 114, "unit": "%"},
      {"measurement": "viability at 0.1235 µM", "setting": "RKO; [1]", "value": 91.2, "unit": "%"},
      {"measurement": "viability at 0.3704 µM", "setting": "RKO; Homo sapiens, RKO, Repetition", "value": 108, "unit": "%"},
      {"measurement": "viability at 0.3704 µM", "setting": "RKO; [1]", "value": 82.8, "unit": "%"},
      {"measurement": "viability at 1.1111 µM", "setting": "RKO; Homo sapiens, RKO, read-out: RKO Cell viability (%), 1.1111 µM, first experiment", "value": 99.3, "unit": "%"},
      {"measurement": "viability at 3.3333 µM", "setting": "RKO; Homo sapiens, RKO, Repetition", "value": 96.8, "unit": "%"},
      {"measurement": "viability at 3.3333 µM", "setting": "RKO; [1]", "value": 96.5, "unit": "%"},
      {"measurement": "viability at 10 µM", "setting": "RKO; Homo sapiens, RKO, Repetition", "value": 92, "unit": "%"},
      {"measurement": "viability at 10 µM", "setting": "RKO; [1]", "value": 71.1, "unit": "%"},
      {"measurement": "HCT-15 Cell viability (%)", "setting": "HCT-15; 0.0137 µM", "value": "94.63% and 95.15% and 88.92% and 87.12% and 85.20%"},
      {"measurement": "HCT-15 Cell viability (%)", "setting": "HCT-15; 0.0412 µM", "value": "84.33% and 79.97% and 95.82% and 93.07% and 94.19%"},
      {"measurement": "HCT-15 Cell viability (%)", "setting": "HCT-15; 0.1235 µM", "value": "87.23% and 83.60% and 94.86% and 91.54% and 91.68%"},
      {"measurement": "HCT-15 Cell viability (%)", "setting": "HCT-15; 0.3704 µM", "value": "89.64% and 87.65% and 88.79% and 84.50% and 86.12%"},
      {"measurement": "HCT-15 Cell viability (%)", "setting": "HCT-15; 1.1111 µM", "value": "86.80% and 87.17% and 87.53% and 83.96% and 84.00%"},
      {"measurement": "HCT-15 Cell viability (%)", "setting": "HCT-15; 3.3333 µM", "value": "78.50% and 80.56% and 79.62% and 74.15% and 75.97%"},
      {"measurement": "HCT-15 Cell viability (%)", "setting": "HCT-15; 10.0000 µM", "value": "48.74% and 48.84% and 48.80% and 46.08% and 47.66%"},
      {"measurement": "viability at 0.0137 µM", "setting": "HCT-15; Homo sapiens, HCT-15, 96 h, read-out: HCT-15 Cell viability (%), 0.0137 µM, 4 d", "value": 96.7, "unit": "%"},
      {"measurement": "viability at 0.0412 µM", "setting": "HCT-15; Homo sapiens, HCT-15, 96 h, read-out: HCT-15 Cell viability (%), 0.0412 µM, 4 d", "value": 83.9, "unit": "%"},
      {"measurement": "viability at 0.1235 µM", "setting": "HCT-15; Homo sapiens, HCT-15, 96 h, read-out: HCT-15 Cell viability (%), 0.1235 µM, 4 d", "value": 87.5, "unit": "%"},
      {"measurement": "viability at 0.3704 µM", "setting": "HCT-15; Homo sapiens, HCT-15, 96 h, read-out: HCT-15 Cell viability (%), 0.3704 µM, 4 d", "value": 93.1, "unit": "%"},
      {"measurement": "viability at 1.1111 µM", "setting": "HCT-15; Homo sapiens, HCT-15, 96 h, read-out: HCT-15 Cell viability (%), 1.1111 µM, 4 d", "value": 93.5, "unit": "%"},
      {"measurement": "viability at 3.3333 µM", "setting": "HCT-15; Homo sapiens, HCT-15, 96 h, read-out: HCT-15 Cell viability (%), 3.3333 µM, 4 d", "value": 76.4, "unit": "%"},
      {"measurement": "viability at 10 µM", "setting": "HCT-15; Homo sapiens, HCT-15, 96 h, read-out: HCT-15 Cell viability (%), 10.0000 µM, 4 d", "value": 49.5, "unit": "%"},
      {"measurement": "viability at 0.5 µM", "setting": "PDO12; Homo sapiens, 96 h, read-out: Cell viability (%), PDO12, 0.5 µM, 4 d", "value": 102, "unit": "%"},
      {"measurement": "Cell viability (%)", "setting": "PDO12; PDO12, 0.5 µM, 4 d, 0.5 µM", "value": "113.70% and 97.26%"},
      {"measurement": "Cell viability (%)", "setting": "PDO12; PDO12, 1 µM, 4 days, 1 µM", "value": "108.38% and 136.33% and 112.98%"},
      {"measurement": "viability at 0.5 µM", "setting": "PDO9; Homo sapiens, 96 h, read-out: Cell viability (%), PDO9, 0.5 µM, 4 d", "value": 92, "unit": "%"},
      {"measurement": "Cell viability (%)", "setting": "PDO9; PDO9, 0.5 µM, 4 d, 0.5 µM", "value": "97.83% and 101.86%"},
      {"measurement": "Cell viability (%)", "setting": "PDO9; PDO9, 1 µM, 4 days, 1 µM", "value": "97.80% and 79.73% and 102.56%"}
    ]}
  ]
}
